Experimental data: patent US20230293469A1, “NOVEL PHARMACEUTICAL COMPOSITIONS” (NEUROPRO THERAPEUTICS, INC., priority 2020, published 2023)
Each block holds one compound with its values, some of them ahead of it.

Experiments:
[1] = Oral dose PK of NPT2042 in dog (AUC for absolute bioavailability); assay type: in vivo; settings: dog
Protocol: Assays were performed to determine absolute bioavailability of NPT2042 in two species: dog and rat. The calculation of absolute bioavailability depends on four inputs: the areas under the curves (AUC) for oral and IV, and the oral and IV doses.
Testing was conducted to determine AUCs for an oral dose in dog.
Two dogs were each dosed 30 mg/kg NPT2042 orally, on two different days.

Microsomes = assay: Proposed metabolite structures and biotransformation pathways (rat, dog, human microsomes); assay type: in vitro ADME; settings: for Proposed Biotransformation Pathway: metabolite of NPT-2042 in microsomes
Protocol: Incubation of Test Compound in Microsomes • 1. Compound final concentration: 10 uM. • 2. Microsomes concentration 1 mg/mL. • 3. Incubate for 1 hour, with an NADPH regenerating system. • 4. 0.5 mL of incubation mixture at 0 min and 1 hour, mixed with 0.5 mL of acetonitrile. • 5. Vortex, and centrifuge at 13200 rpm for 10 min. • 6. Supernatant was transferred to a clean vial for LCMS analysis NADPH regenerating system (cofactor; consisting of NADP [0.340 mg/mL], G6P [1.56 mg/mL], and G6PDH [0.4 U/mL] solutions)
LC-MS/MS Method: • HPLC Column: Agilent, Polaris 3 C18-A, 150×2.0 mm (S/N: 533819), made in Netherlands. • Guard Column: Agilent, MonoChrom 3 C18 MetaGuard, 10×2.0 mm (S/N: 556145) • Column temperature: 40° C. • Mobile Phase A: 5 mM ammonium format in water (Optima) • Mobile Phase B: acetonitrile (Optima) • Flow rate: 0.2 mL/min • Gradient (Table on right) • MS: Thermo Q Exactive Plus.
Summary of Proposed Metabolite Structures and Biotransformation Pathway

Dog Microsomes = assay: Metabolite screening of NPT-2042 in dog microsomes; assay type: in vitro ADME; settings: NPT-2042 10 uM, microsomes 1 mg/mL, 1 hour, NADPH regenerating system
Protocol: (§1) Incubation of Test Compound in Microsomes • 1. Compound final concentration: 10 uM. • 2. Microsomes concentration 1 mg/mL. • 3. Incubate for 1 hour, with an NADPH regenerating system. • 4. 0.5 mL of incubation mixture at 0 min and 1 hour, mixed with 0.5 mL of acetonitrile. • 5. Vortex, and centrifuge at 13200 rpm for 10 min. • 6. Supernatant was transferred to a clean vial for LCMS analysis NADPH regenerating system (cofactor; consisting of NADP [0.340 mg/mL], G6P [1.56 mg/mL], and G6PDH [0.4 U/mL] solutions) LC-MS/MS Method: • HPLC Column: Agilent, Polaris 3 […], 150×2.0 mm (S/N: 533819), made in Netherlands. • Guard Column: Agilent, MonoChrom 3 C18 MetaGuard, 10×2.0 mm (S/N: 556145) • Column temperature: 40° C. • Mobile Phase A: 5 mM ammonium format in water (Optima) • Mobile Phase B: acetonitrile (Optima) • Flow rate: 0.2 mL/min • Gradient (Table on right) • MS: Thermo Q Exactive Plus.

Human Microsomes = assay: Metabolite screening of NPT-2042 in human microsomes; assay type: in vitro ADME; settings: NPT-2042 10 uM, microsomes 1 mg/mL, 1 hour, NADPH regenerating system
Protocol: as §1

Rat Microsomes = assay: Metabolite screening of NPT-2042 in rat microsomes; assay type: in vitro ADME; settings: NPT-2042 10 uM, microsomes 1 mg/mL, 1 hour, NADPH regenerating system
Protocol: as §1

[2] = elderly, population-based control study; cited from earlier work
[3] = dose level 30 mg/kg NPT2042, Table 4
[4] = dose level 30 mg/kg NPT2042, Table 5

- Bumetanide concentration, Time 0.50 h [1, 3]: BQL
- Bumetanide concentration, Time 1.00 h [1, 3]: BQL
- Bumetanide concentration, Time 2.00 h [1, 3]: BQL
- Bumetanide concentration, Time 4.00 h [1, 3]: BQL
- Bumetanide concentration, Time 6.00 h [1, 3]: BQL
- Bumetanide concentration, Time 8.00 h [1, 3]: BQL
- Bumetanide concentration, Time 12.00 h [1, 3]: BQL
- Bumetanide concentration, Time 24.00 h [1, 3]: BQL
- Bumetanide concentration, Time 0.50 h [1, 4]: BQL
- Bumetanide concentration, Time 1.00 h [1, 4]: BQL
- Bumetanide concentration, Time 2.00 h [1, 4]: BQL
- Bumetanide concentration, Time 4.00 h [1, 4]: BQL
- Bumetanide concentration, Time 6.00 h [1, 4]: BQL
- Bumetanide concentration, Time 8.00 h [1, 4]: BQL
- Bumetanide concentration, Time 12.00 h [1, 4]: BQL
- Bumetanide concentration, Time 24.00 h [1, 4]: BQL
SMILES: CCCCNc1cc(C(=O)O)cc(S(N)(=O)=O)c1Oc1ccccc1 [Bumetanide, bumetanide, reference compound]

SMILES: Nc1cc(C(=O)NCc2ccccc2)cc(S(N)(=O)=O)c1Oc1ccccc1 [Example M1]
- Proposed Biotransformation Pathway (Microsomes): De-alkylations
- Dog Mic (MS Intensity) (Dog Microsomes): 2.95E+06
- Human Mic (MS Intensity) (Human Microsomes): 1.42E+06
- Rat Mic (MS Intensity) (Rat Microsomes): 1.28E+07

SMILES: Nc1cc(C(=O)N(Cc2ccccc2)Cc2ccccc2)cc(S(N)(=O)=O)c1Oc1ccccc1 [Example M4]
- Proposed Biotransformation Pathway (Microsomes): De-alkylation
- Dog Mic (MS Intensity) (Dog Microsomes): 3.11E+07
- Human Mic (MS Intensity) (Human Microsomes): 2.52E+07
- Rat Mic (MS Intensity) (Rat Microsomes): 6.53E+07

SMILES: CCCCNc1cc(C(=O)NCc2ccccc2)cc(S(N)(=O)=O)c1Oc1ccccc1 [Example M6]
- Proposed Biotransformation Pathway (Microsomes): De-alkylation
- Dog Mic (MS Intensity) (Dog Microsomes): 4.12E+07
- Human Mic (MS Intensity) (Human Microsomes): 3.25E+07
- Rat Mic (MS Intensity) (Rat Microsomes): 7.96E+07

- Metabolism of positive control (Microsomes; microsome incubation): showed Phase I metabolism
SMILES: O=C(O)Cc1ccccc1Nc1c(Cl)cccc1Cl [diclofenac, reference compound]

SMILES: NS(=O)(=O)c1cc(C(=O)O)c(NCc2ccco2)cc1Cl [furosemide]
- Protective factor for the development of epilepsy [2]: 39%
